We go through 4 molecules from ChEMBL document CHEMBL3259716, “The evolution of amidine-based brain penetrant BACE1 inhibitors” (Bioorg Med Chem Lett, 2014).

As a reminder, the pKa is the pH at which an ionisable group is half protonated. A high value points to a weaker acid or stronger base.

A short description of series [1]: Dissociation constant, pKa of the compound. In kind it is physicochemical.
For the next series, the system named is Nucleic Acid. In words: Ratio of drug level in brain to plasma in Sprague-Dawley rat at 10 mg/kg, po measured at 6 hrs. In kind it is ADME, organism-based. Also noted: dose 10 mg/kg, route oral.
Series [2] in a line: Plasma concentration in Sprague-Dawley rat at 10 mg/kg, po measured at 6 hrs by LC-MS/MS analysis. More on the design: dose 10 mg/kg, route oral. In kind it is ADME, organism-based.
Series [3] can be described thus: Drug uptake in Sprague-Dawley rat brain at 10 mg/kg, po measured at 6 hrs by LC-MS/MS analysis. The format is ADME, organism-based. More on the design: dose 10 mg/kg, route oral. The note with it: read-out: Drug uptake.

In turn, `COc1cccc(-c2cccc([C@@]3(c4ccncc4)N=C(N)N4CC(F)(F)CN=C43)c2)c1F` yielded a pKa in series [1] of 5.3.

In series [1], `NC1=N[C@](c2ccc(OC(F)F)cc2)(c2cccc(OCCF)c2)C2=NCC(F)(F)CN12` gave a pKa of 6.5.

Take `NC1=N[C@@]2(c3cc(NC(=O)c4cnc(C(F)F)cn4)ccc3F)CO[C@H](CF)[C@H]2CS1`: the BPR in the series on Nucleic Acid stood at 0.7. Further, the concentration at 6 h in series [2] and in series [3] was 570 nM throughout.

As to `NC1=N[C@@]2(c3cc(NC(=O)c4cnc(CF)cn4)ccc3F)CO[C@H](C(F)(F)F)[C@H]2CS1`, in the series with Nucleic Acid, the BPR was determined as 3.7. Moreover, the results for the concentration at 6 h in series [2] and in series [3] were 229 nM and 845 nM, respectively.
